We go through three compounds from US20130287890A1, “INHIBITOR OF THE PRODUCTION OF ADVANCED GLYCATION END PRODUCTS” (UENO FINE CHEMICALS INDUSTRY, LTD., priority 2012, published 2013).

Assay [1] deals with pentosidine. Briefly: Quantitative determination of pentosidine after reaction at 37° C. for 42 days. Type of assay: biochemical. The note with it: for Pentosidine: 37° C., 42 days. How it is done: (§1) Amino acid, carbohydrates and a phosphate buffer solution were charged in a 50 mL polypropylene centrifuge tube in each amount shown in Table 10, followed by sealing and stirring, and then the mixture was reacted in an incubator at 37° C. for 42 days. Next, the reactant was filtered through a 0.2 μm filter and the obtained filtrate was used as a sample. Amino acid and carbohydrates used are as follows:
Using a pentosidine measurement kit “FSK Pentosidine (registered trademark)” (manufactured by Fushimi Pharmaceutical Co., Ltd.), quantitative determination of pentosidine was performed in the following manner. Thirty (30) or more minutes before use, reagents and pentosidine solid-phase plates were put to room temperature. After dilution of the sample, a 50 μL aliquot of the sample was dispensed to a pentosidine solid-phase plate attached to the kit, and 50 μL of a first antibody solution was dispensed into wells other than the wells for measurement of reagent blank value. After the sample and the antibody solution were mixed by shaking the plate at 300 rpm for 1 minute, the solution was reacted at 37° C. for 1 hour. Next, the reaction solution was discarded, and 200 μL of rinsing fluid was dispensed to wash the plate. The washing was performed for 3 times. After liquid on the plate was removed, 100 μl of a second antibody solution was dispensed into wells other than the wells for measurement of reagent blank value. After the solution was mixed by shaking the plate at 300 rpm for 1 minute, the solution was reacted at 25° C. for 1 hour. Then, the reaction solution was discarded, and the plate was washed for 3 times with 200 μL of rinsing fluid again. Liquid on the plate was removed, and 100 μL of a color coupler was dispensed and left to stand for 10 minutes under a light shielding condition. Finally, 100 μL of a reaction stop solution was dispensed, and within 10 minutes after the dispensing, measurement was performed at main wavelength 450 nm/reference wavelength 630 nm using a micro-plate reader. The concentration of pentosidine was determined using the calibration curve of a pentosidine standard solution, based on measurement values of the sample.
(§2) Biological proteins, carbohydrates and a phosphate buffer solution are charged in a 50 mL polypropylene centrifuge tube in each amount shown in Table 12, followed by sealing and stirring, and then the mixture was reacted in an incubator at 37° C. for 42 days. Next, the reactant was fractionated by centrifugation at 3,000 rpm for 3 hours using an ultrafiltration unit (VIVA SPIN 20, manufactured by Sartorius Corporation). The obtained low molecular weight fraction was used as a sample for determination of 3-DG, while the obtained high molecular weight fraction was used as a sample for the determination of fluorescent AGEs, pentosidine, CML, RAGE agonist activity and RAGE antagonist activity. Biological proteins and carbohydrates used are as follows:
(§3) In the same manner as in Test Example 4, except that the low molecular weight fraction prepared as mentioned above was used as a sample, quantitative determination of 3-DG was performed. In the same manner as in Test Example 4, except that the high molecular weight fraction was filtered through a 0.2 μm filter and the filtrate was used as a sample, fluorescent AGEs, pentosidine, CML, RAGE agonist activity and RAGE antagonist activity were evaluated.
Collagen, carbohydrates and a phosphate buffer solution were charged in a 50 mL polypropylene centrifuge tube in each amount shown in Table 14, followed by sealing and stirring, and then the mixture was reacted in an incubator at 37° C. for 42 days. Next, the reactant was fractionated by centrifugation at 3,000 rpm for 3 hours using an ultrafiltration unit (VIVA SPIN 20, manufactured by Sartorius Corporation). The obtained low molecular weight fraction was used as a sample for determination of 3-DG. […]

Assay [2] concerns CML. In words: Quantitative determination of CML after reaction at 37° C. for 42 days. To be noted: for CML: 37° C., 42 days. Type of assay: biochemical. How it is done:
as §1
Using CircuLex CML/Nε-(carboxymethyl) lysine ELISA kit (manufactured by CycLex Co., Ltd.), quantitative determination of CML was performed in the following manner. Thirty (30) or more minutes before use, reagents and CML solid-phase wells were put to room temperature. By adding 1 mL of ultrapure water (Milli-Q water) to a CML-HSA standard powder, a master standard was prepared. By performing dilution with standard dilution buffers, standards 1 to 7 were prepared. The sample was diluted as necessary with sample dilution buffers. A CML-HSA standard and 60 μL of the sample were dispensed into a 96-well plate, which is not an accessory to the kit. Next, ultrapure water (Milli-Q water) was added to a first antibody powder, and by diluting with sample dilution buffers, a first antibody solution was prepared; 60 μL of the antibody solution was dispensed into the plate and mixed. After 100 μL of the mixture was added to CML solid-phase wells, the mixture was reacted at 25° C. for 1 hour while being shaken at 300 rpm. Then, the reaction solution was discarded, and 350 μL of rinsing fluid was dispensed to wash the plate. The washing was performed for 4 times. After liquid on the plate was removed, 100 μL of a second antibody solution was dispensed and reacted at 25° C. for 1 hour while being shaken at 300 rpm. The reaction solution was discarded, and the plate was washed for 4 times with 350 μL of rinsing fluid again. Liquid on the plate was removed, and 100 μL of a color coupler was dispensed. Then, the solution was left to stand for 10 minutes under a light shielding condition while being shaken at 300 rpm. Finally, 100 μL of a reaction stop solution was dispensed, and within 30 minutes after the dispensing, measurement was performed at main wavelength 450 nm/reference wavelength 595 nm using a micro-plate reader. The concentration of CML was determined using the calibration curve of a CML standard solution, based on measurement values of the sample.
as §2, §3
Collagen, carbohydrates and a phosphate buffer solution were charged in a 50 mL polypropylene centrifuge tube in each amount shown in Table 14, followed by sealing and stirring, and then the mixture was reacted in an incubator at 37° C. for 42 days. […]

The mark [3] stands for this setting: Test Example 4, amino acid 0.4 g + carbohydrate 1.8 g.
Where [4] appears, read: Test Example 5, bovine serum albumin 0.4 g + carbohydrate 1.8 g.
The mark [5] stands for this setting: Test Example 5, human serum albumin 0.4 g + carbohydrate 1.8 g.
[6] abbreviates: Test Example 5, γ-globulin 0.4 g + carbohydrate 1.8 g.
[7] abbreviates: Test Example 6, collagen 0.015 g + carbohydrate 1.8 g, hydrolysed high molecular weight fraction.
The mark [8] stands for this setting: Test Example 4, amino acid, compared with sections containing glucose and fructose.
The mark [9] stands for this setting: Test Example 5, bovine serum albumin, human serum albumin, γ-globulin, compared with sections containing fructose.
Where [10] appears, read: Test Example 5, bovine serum albumin, human serum albumin, γ-globulin, compared with sections containing glucose.
[11] abbreviates: Test Example 6, collagen, compared with sections containing glucose and fructose.

With `O=C[C@H](O)[C@@H](O)[C@H](O)[C@H](O)CO` [Glucose], the Pentosidine was 5.8 nmol/1 mL of reaction solution in assay [1] (setting [3]); 0.01 nmol/1 mL of reaction solution in assay [1] (setting [4]); 0.02 nmol/1 mL of reaction solution in assay [1] (setting [5]); 0.002 nmol/1 mL of reaction solution in assay [1] (setting [6]); 0.06 nmol/1 mL of reaction solution in assay [1] (setting [7]). Also, the CML was 1197 nmol/1 mL of reaction solution in assay [2] (setting [3]); 309 nmol/1 mL of reaction solution in assay [2] (setting [4]); 1749 nmol/1 mL of reaction solution in assay [2] (setting [5]); 3628 nmol/1 mL of reaction solution in assay [2] (setting [6]); 475 nmol/1 mL of reaction solution in assay [2] (setting [7]).
As for `OC[C@@H](O)[C@@H](O)[C@H](O)[C@@H](O)CO` [Sorbitol], the Pentosidine in assay [1] (setting [3]) is on record as 0.8 nmol/1 mL of reaction solution; in assay [1] (setting [4]), 0.03 nmol/1 mL of reaction solution; in assay [1] (setting [5]), 0.02 nmol/1 mL of reaction solution; in assay [1] (setting [6]), 0.002 nmol/1 mL of reaction solution; in assay [1] (setting [7]), 0.05 nmol/1 mL of reaction solution. Further, the production of pentosidine result in assay [1] (setting [8]), in assay [1] (setting [9]), in assay [1] (setting [10]) and in assay [1] (setting [11]) was “decreased” in each case. The CML in assay [2] (setting [3]) was 57 nmol/1 mL of reaction solution; in assay [2] (setting [4]), 10 nmol/1 mL of reaction solution; in assay [2] (setting [5]), 69 nmol/1 mL of reaction solution; in assay [2] (setting [6]) it was 29 nmol/1 mL of reaction solution; in assay [2] (setting [7]), 445 nmol/1 mL of reaction solution. Besides, the “production of CML” value in assay [2] (setting [8]), in assay [2] (setting [9]), in assay [2] (setting [10]) and in assay [2] (setting [11]) was “decreased” each time.
Consider `O=C(CO)[C@@H](O)[C@H](O)[C@H](O)CO` [Fructose], for which the Pentosidine is on record as 24.7 nmol/1 mL of reaction solution in assay [1] (setting [3]); 0.03 nmol/1 mL of reaction solution in assay [1] (setting [4]); 0.05 nmol/1 mL of reaction solution in assay [1] (setting [5]); 0.005 nmol/1 mL of reaction solution in assay [1] (setting [6]); 0.15 nmol/1 mL of reaction solution in assay [1] (setting [7]). Also, the CML in assay [2] (setting [3]) is given as 519 nmol/1 mL of reaction solution; in assay [2] (setting [4]), 1046 nmol/1 mL of reaction solution; in assay [2] (setting [5]) it was 4626 nmol/1 mL of reaction solution; in assay [2] (setting [6]), 3813 nmol/1 mL of reaction solution; in assay [2] (setting [7]), 452 nmol/1 mL of reaction solution.
